In the supplement of paper PMC6045584:
± gives the standard deviation of the averaged measurements.

Assays:
AFIMOXIFENE = compound: CC/C(=C(\c1ccc(O)cc1)c1ccc(OCCN(C)C)cc1)c1ccccc1 [AFIMOXIFENE]; assay: surviving fraction relative to DMSO-only wells; higher = less growth inhibition; settings: exposure time: 5 days
How it was run: (§1)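 At 250–500 cells per well in 384-well plates, log-phase tumour cell lines were seeded and, 24 hours on, exposed continuously for five days to inhibitors at 0.5, 1, 5, 10, 50, 100, 500 and 1000 nM. Viability readout was CellTiter-Glo luminescence, reported as surviving fraction normalised to the median of DMSO-only wells.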

CABOZANTINIB = compound: COc1cc2nccc(Oc3ccc(NC(=O)C4(C(=O)Nc5ccc(F)cc5)CC4)cc3)c2cc1OC [CABOZANTINIB]; assay: as above; settings: exposure time: 5 days
How it was run: as §1

Test System | surviving fraction (AFIMOXIFENE; 0.5 nM) | surviving fraction (AFIMOXIFENE; 1 nM) | surviving fraction (AFIMOXIFENE; 5 nM) | surviving fraction (AFIMOXIFENE; 10 nM) | surviving fraction (AFIMOXIFENE; 50 nM) | surviving fraction (AFIMOXIFENE; 100 nM) | surviving fraction (AFIMOXIFENE; 500 nM) | surviving fraction (AFIMOXIFENE; 1000 nM) | surviving fraction (CABOZANTINIB; 0.5 nM) | surviving fraction (CABOZANTINIB; 1 nM) | surviving fraction (CABOZANTINIB; 5 nM) | surviving fraction (CABOZANTINIB; 10 nM) | surviving fraction (CABOZANTINIB; 50 nM) | surviving fraction (CABOZANTINIB; 100 nM) | surviving fraction (CABOZANTINIB; 500 nM) | surviving fraction (CABOZANTINIB; 1000 nM)
SIHA CERVIX | 1.1 ± 0.029 | 1.07 ± 0.051 | 1.09 ± 0.072 | 1.19 ± 0.031 | 1.15 ± 0.06 | 1.21 ± 0.032 | 1.13 ± 0.062 | 1.09 ± 0.058 | 0.857 ± 0.073 | 0.835 ± 0.051 | 0.979 ± 0.02 | 0.918 ± 0.017 | 0.988 ± 0.024 | 0.929 ± 0.038 | 0.737 ± 0.032 | 0.68 ± 0.033
SJSA1 BONE | 1.6 ± 0.021 | 1.74 ± 0.059 | 1.65 ± 0.083 | 1.74 ± 0.087 | 1.78 ± 0.027 | 1.52 ± 0.05 | 1.79 ± 0.059 | 1.27 ± 0.068 | 1.47 ± 0.13 | 1.63 ± 0.045 | 1.56 ± 0.07 | 1.75 ± 0.071 | 1.627 ± 0.0032 | 1.74 ± 0.13 | 1.65 ± 0.059 | 1.78 ± 0.089
SKBR3 BREAST | 1.16 ± 0.077 | 1.1 ± 0.16 | 1.16 ± 0.11 | 1.12 ± 0.16 | 1.17 ± 0.13 | 1.06 ± 0.19 | 1.16 ± 0.12 | 0.923 ± 0.12 | 1.02 ± 0.1 | 0.954 ± 0.11 | 1.07 ± 0.083 | 0.973 ± 0.011 | 1.12 ± 0.11 | 1.06 ± 0.098 | 0.987 ± 0.077 | 0.973 ± 0.025
SNU475 LIVER | 1.06 ± 0.024 | 1.09 ± 0.055 | 1.03 ± 0.016 | 1.04 ± 0.057 | 1.01 ± 0.022 | 1.07 ± 0.034 | 1.01 ± 0.054 | 1.07 ± 0.062 | 1 ± 0.033 | 0.972 ± 0.049 | 0.987 ± 0.031 | 0.991 ± 0.053 | 1 ± 0.012 | 0.985 ± 0.048 | 0.923 ± 0.023 | 0.876 ± 0.021
SUM44 BREAST | 1.17 ± 0.34 | 1.22 ± 0.34 | 1.2 ± 0.26 | 1.2 ± 0.39 | 1.3 ± 0.43 | 1.19 ± 0.36 | 1.13 ± 0.29 | 1.08 ± 0.32 | 1.21 ± 0.32 | 1.18 ± 0.3 | 1.24 ± 0.24 | 1.21 ± 0.23 | 1.36 ± 0.4 | 1.3 ± 0.35 | 1.2 ± 0.33 | 1.27 ± 0.39
SUM149 BREAST | 1.12 ± 0.094 | 1.02 ± 0.1 | 1.03 ± 0.078 | 1.03 ± 0.14 | 0.861 ± 0.031 | 0.911 ± 0.076 | 1.01 ± 0.11 | 0.868 ± 0.032 | 1.03 ± 0.054 | 0.979 ± 0.19 | 0.912 ± 0.061 | 0.997 ± 0.021 | 0.987 ± 0.12 | 0.96 ± 0.084 | 0.91 ± 0.15 | 0.924 ± 0.091
SUM149.B1*.S BREAST | 1.17 ± 0.043 | 1.1 ± 0.022 | 1.14 ± 0.065 | 1.16 ± 0.087 | 1.18 ± 0.051 | 1.16 ± 0.099 | 1.14 ± 0.07 | 1.2 ± 0.034 | 1.03 ± 0.07 | 1.02 ± 0.034 | 0.998 ± 0.046 | 1.04 ± 0.025 | 1.039 ± 0.0013 | 0.979 ± 0.037 | 0.992 ± 0.029 | 0.967 ± 0.021
SUM159 BREAST | 1.12 ± 0.024 | 1.12 ± 0.028 | 1.12 ± 0.026 | 1.11 ± 0.013 | 1.09 ± 0.025 | 1.13 ± 0.023 | 1.114 ± 0.01 | 1.06 ± 0.016 | 1.02 ± 0.03 | 1.02 ± 0.028 | 1.01 ± 0.026 | 1.01 ± 0.036 | 1 ± 0.025 | 1.01 ± 0.034 | 0.986 ± 0.036 | 0.977 ± 0.025
